From patent publication US20260109694A1, “HETEROCYCLIC COMPOUNDS AND USES THEREOF” (Kumquat Biosciences Inc., priority 2023, published 2026)

Legend:
PTP1B = target: T1, PTP1B (Homo sapiens, UniProt P18031); assay: Phosphatase activity assay (DiFMUP substrate); format: biochemical; conditions: value bin printed in column head
T1 sequence (P18031 1-435): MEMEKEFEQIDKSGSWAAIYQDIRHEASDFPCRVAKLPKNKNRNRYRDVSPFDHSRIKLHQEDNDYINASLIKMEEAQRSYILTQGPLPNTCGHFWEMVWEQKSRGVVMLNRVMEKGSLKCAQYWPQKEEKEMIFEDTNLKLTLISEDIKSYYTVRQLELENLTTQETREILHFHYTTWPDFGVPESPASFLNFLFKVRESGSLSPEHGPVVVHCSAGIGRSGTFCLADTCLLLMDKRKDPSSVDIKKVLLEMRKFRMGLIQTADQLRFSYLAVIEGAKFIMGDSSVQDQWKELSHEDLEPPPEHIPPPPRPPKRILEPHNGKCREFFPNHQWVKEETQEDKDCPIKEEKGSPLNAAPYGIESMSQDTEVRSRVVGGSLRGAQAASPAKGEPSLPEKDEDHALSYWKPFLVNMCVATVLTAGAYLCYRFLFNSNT
Procedure: (§1) The selectivity and potency of a small molecule PTPN2 inhibitor as provided herein against one or more protein tyrosine phosphatase (PTP) enzymes, and specifically against PTPN2, is assessed in various ways. The one or more PTP enzymes comprise Mycobacterium protein tyrosine phosphatase A (mPTPA), Mycobacterium protein tyrosine phosphatase B (mPTPB), PTPN1 (i.e., PTP1B), PTPN2 (i.e., TC-PTP), PTPN22 (i.e., LYP), SHP-1, SHP-2, FAP-1, Meg2, HePTP, Laforin, VHX, VHR, LMWPTP, Cdc14A, LAR, CD45, PTPRG, a fragment thereof, a variant thereof, and a combination thereof. Selectivity and potency of a small molecule PTPN2 inhibitor is evaluated using a PTP activity inhibition assay. The assay is performed using a buffer comprising 50 mM HEPES buffer pH 7.5, 150 mM NaCl, 0.5 mM EDTA, 1 mM DTT, 0.001% Tween-20.
(§2) The assay is performed using a phosphated substrate, e.g., 10 mM 6,8-Difluoro-4-Methylumbelliferyl Phosphate (DIFMUP) that is stored at −20° C. Alternatively or in addition to, the assay is performed using other phosphated substrate (e.g., fluorescein diphosphate). Each PTP enzyme is diluted in the assay buffer
(§3) The assay can be carried out at room temperature in multiplate format, e.g., using 384 well plates. A small molecule PTPN2 inhibitor dissolved in DMSO at one of 10 concentrations from a serial dilution or DMSO alone for control is added to each well. A mixture of the assay buffer comprising PTP enzyme (e.g., 0.025 ng/ul PTPN2) is added to each well and mixed for approximately 2 minutes. The reaction is initiated by adding DiFMUP diluted in the assay buffer to a final concentration of approximately 45 µM DiFMUP in PTPN2 assay. For each PTP enzyme, DiFMUP is added at the Km (Michaelis constant) of the enzyme that had been independently determined. The phosphatase activity of the PTP enzyme is assessed by monitoring appearance of a fluorescent product (6,8-difluoro-7-hydroxyl-4-coumarin (DiFMU) from DiFMUP) continuously for about 15 to 30 minutes, using the INFINITE M1000Pro plate reader (Tecan) with excitation at 360 nm and emission at 450 nm (cutoff filter at 435 nm) for DiFMU. Each assay is performed at least in duplicate. The rate (e.g., the initial rate) of DiFMU formation is plotted against the concentration of the small molecule PTPN2 inhibitor, and the data is fitted (e.g., using a 4-parameter equation) to determine the inflection point of the fit as the IC50 of the small molecule PTPN2 inhibitor for a specific enzyme. Utilizing this assay, the ability of the compounds in Table 1 to inhibit PTPN2 and PTP1B has been assessed. Table 3 summarizes the IC50 values.

PTPN2 = target: T2, PTPN2 (Homo sapiens, UniProt P17706); assay: Phosphatase activity assay (DiFMUP substrate); format: biochemical; conditions: value bin printed in column head
T2 sequence (P17706 1-415): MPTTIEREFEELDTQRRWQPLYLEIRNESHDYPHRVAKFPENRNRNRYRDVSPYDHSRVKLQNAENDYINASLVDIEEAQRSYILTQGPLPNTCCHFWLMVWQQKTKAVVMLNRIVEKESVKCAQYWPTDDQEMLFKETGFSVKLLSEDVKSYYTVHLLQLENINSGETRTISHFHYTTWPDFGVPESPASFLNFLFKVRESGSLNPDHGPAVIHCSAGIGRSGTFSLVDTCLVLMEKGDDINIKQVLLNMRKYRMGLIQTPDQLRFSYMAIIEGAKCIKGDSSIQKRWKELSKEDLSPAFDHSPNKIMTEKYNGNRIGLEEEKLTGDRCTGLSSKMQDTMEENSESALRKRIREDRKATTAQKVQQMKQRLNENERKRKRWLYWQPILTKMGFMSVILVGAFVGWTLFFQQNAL
Procedure: as §1, §2, §3

| SMILES | IC50 (PTP1B) [nM] | IC50 (PTPN2) [nM] |
| --- | --- | --- |
| CC(=O)OC(C)OC(=O)N1CC(c2ccc(O)c(N3CC(=O)NS3(=O)=O)c2F)=C[C@H]1CCC1CC1 (stereo partly drawn) [Compound 121, 1-acetoxyethyl (2R)-2-(2-cyclopropylethyl)-4-(3-(1,1-dioxido-4-oxo-1,2,5-thiadiazolidin-2-yl)-2-fluoro-4-hydroxyphenyl)-2,5-dihydro-1H-pyrrole-1-carboxylate] | ≤ 1000 | ≤ 1000 |
| O=C1CN(c2c(O)ccc(C(=O)NC3CNC3)c2F)S(=O)(=O)N1 [Compound 124, N-(azetidin-3-yl)-3-(1,1-dioxido-4-oxo-1,2,5-thiadiazolidin-2-yl)-2-fluoro-4-hydroxybenzamide] | > 1000 | > 1000 |
| O=C1CN(c2c(O)ccc(C3=C[C@H](CCC4CC4)NC3)c2F)S(=O)(=O)N1 [Compound 130, (S)-5-(3-(5-(2-cyclopropylethyl)-2,5-dihydro-1H-pyrrol-3-yl)-2-fluoro-6-hydroxyphenyl)-1,2,5-thiadiazolidin-3-one 1,1-dioxide] | ≤ 1000 | ≤ 1000 |
| O=C1CN(c2c(O)ccc(C3=CC(CO)CC3)c2F)S(=O)(=O)N1 (centres unmarked) [Compound 131, 5-(2-fluoro-6-hydroxy-3-(3-(hydroxymethyl)cyclopent-1-en-1-yl)phenyl)-1,2,5-thiadiazolidin-3-one 1,1-dioxide] | ≤ 1000 | ≤ 1000 |
| O=C1CN(c2c(O)cc(C3=CCCNC3)cc2F)S(=O)(=O)N1 [Compound 132, 5-(2-fluoro-6-hydroxy-4-(1,2,5,6-tetrahydropyridin-3-yl)phenyl)-1,2,5-thiadiazolidin-3-one 1,1-dioxide] | ≤ 1000 | ≤ 1000 |
| O=C1CN(c2c(O)ccc(C3=CC(CCC(F)(F)F)NC3)c2F)S(=O)(=O)N1 (centres unmarked) [Compound 133, 5-(2-fluoro-6-hydroxy-3-(5-(3,3,3-trifluoropropyl)-2,5-dihydro-1H-pyrrol-3-yl)phenyl)-1,2,5-thiadiazolidin-3-one 1,1-dioxide] | ≤ 1000 | ≤ 1000 |
| O=C1CN(c2c(O)ccc(C3=C[C@H](CCC4CCC4)NC3)c2F)S(=O)(=O)N1 [Compound 134, (S)-5-(3-(5-(2-cyclobutylethyl)-2,5-dihydro-1H-pyrrol-3-yl)-2-fluoro-6-hydroxyphenyl)-1,2,5-thiadiazolidin-3-one 1,1-dioxide] | ≤ 1000 | ≤ 1000 |
| O=C1CN(c2c(O)ccc(C3=CCC(CO)C3)c2F)S(=O)(=O)N1 (centres unmarked) [Compound 135, 5-(2-fluoro-6-hydroxy-3-(4-(hydroxymethyl)cyclopent-1-en-1-yl)phenyl)-1,2,5-thiadiazolidin-3-one 1,1-dioxide] | ≤ 1000 | ≤ 1000 |
| O=C1CN(c2c(O)ccc(C(=O)NC3CCNC3)c2F)S(=O)(=O)N1 (centres unmarked) [Compound 136, 3-(1,1-dioxido-4-oxo-1,2,5-thiadiazolidin-2-yl)-2-fluoro-4-hydroxy-N-(pyrrolidin-3-yl)benzamide] | > 1000 | > 1000 |
| O=C1CN(c2c(O)ccc(C3=CC(CCCC(F)F)NC3)c2F)S(=O)(=O)N1 (centres unmarked) [Compound 137, 5-(3-(5-(4,4-difluorobutyl)-2,5-dihydro-1H-pyrrol-3-yl)-2-fluoro-6-hydroxyphenyl)-1,2,5-thiadiazolidin-3-one 1,1-dioxide] | ≤ 1000 | ≤ 1000 |
| O=C1CN(c2c(O)cc(C3CCCNC3)cc2F)S(=O)(=O)N1 (centres unmarked) [Compound 138, 5-(2-fluoro-6-hydroxy-4-(piperidin-3-yl)phenyl)-1,2,5-thiadiazolidin-3-one 1,1-dioxide] | ≤ 1000 | ≤ 1000 |
| O=C1CN(c2c(O)ccc(C3=CC4CCCN4C3)c2F)S(=O)(=O)N1 (centres unmarked) [Compound 139, 5-(2-fluoro-6-hydroxy-3-(2,3,5,7a-tetrahydro-1H-pyrrolizin-6-yl)phenyl)-1,2,5-thiadiazolidin-3-one 1,1-dioxide] | ≤ 1000 | ≤ 1000 |
| O=C1CN(c2c(O)cc(CC3CCNC3)cc2F)S(=O)(=O)N1 (centres unmarked) [Compound 140, 5-(2-fluoro-6-hydroxy-4-(pyrrolidin-3-ylmethyl)phenyl)-1,2,5-thiadiazolidin-3-one 1,1-dioxide] | ≤ 1000 | ≤ 1000 |
| O=C1CN(c2c(O)ccc(CC3CCNC3)c2F)S(=O)(=O)N1 (centres unmarked) [Compound 141, 5-(2-fluoro-6-hydroxy-3-(pyrrolidin-3-ylmethyl)phenyl)-1,2,5-thiadiazolidin-3-one 1,1-dioxide] | ≤ 1000 | ≤ 1000 |
| O=C1CN(c2c(O)ccc(OC3CCNC3)c2F)S(=O)(=O)N1 (centres unmarked) [Compound 142, 5-(2-fluoro-6-hydroxy-3-(pyrrolidin-3-yloxy)phenyl)-1,2,5-thiadiazolidin-3-one 1,1-dioxide] | ≤ 1000 | > 1000 |

Next, values leading:

| IC50 (PTP1B) [nM] | IC50 (PTPN2) [nM] | SMILES |
| --- | --- | --- |
| ≤ 1000 | ≤ 1000 | O=C1CN(c2c(O)ccc(CC3CCCNC3)c2F)S(=O)(=O)N1 (centres unmarked) [Compound 122, 5-(2-fluoro-6-hydroxy-3-(piperidin-3-ylmethyl)phenyl)-1,2,5-thiadiazolidin-3-one 1,1-dioxide] |
| ≤ 1000 | ≤ 1000 | O=C1CN(c2c(O)ccc(C3=CC(CCCC4CC4)NC3)c2F)S(=O)(=O)N1 (centres unmarked) [Compound 123, 5-(3-(5-(3-cyclopropylpropyl)-2,5-dihydro-1H-pyrrol-3-yl)-2-fluoro-6-hydroxyphenyl)-1,2,5-thiadiazolidin-3-one 1,1-dioxide] |
| ≤ 1000 | ≤ 1000 | O=C1CN(c2c(O)ccc(C3=CC(C4CCC4)NC3)c2F)S(=O)(=O)N1 (centres unmarked) [Compound 125, 5-(3-(5-cyclobutyl-2,5-dihydro-1H-pyrrol-3-yl)-2-fluoro-6-hydroxyphenyl)-1,2,5-thiadiazolidin-3-one 1,1-dioxide] |
| ≤ 1000 | ≤ 1000 | O=C1CN(c2c(O)ccc(C3=CC(CC4CCC4)NC3)c2F)S(=O)(=O)N1 (centres unmarked) [Compound 126, 5-(3-(5-(cyclobutylmethyl)-2,5-dihydro-1H-pyrrol-3-yl)-2-fluoro-6-hydroxyphenyl)-1,2,5-thiadiazolidin-3-one 1,1-dioxide] |
| ≤ 1000 | ≤ 1000 | O=C1CN(c2c(O)ccc(CC3CCNCC3)c2F)S(=O)(=O)N1 [Compound 127, 5-(2-fluoro-6-hydroxy-3-(piperidin-4-ylmethyl)phenyl)-1,2,5-thiadiazolidin-3-one 1,1-dioxide] |
| ≤ 1000 | ≤ 1000 | O=C1CN(c2c(O)cc(C3=CCNC3)cc2F)S(=O)(=O)N1 [Compound 128, 5-(4-(2,5-dihydro-1H-pyrrol-3-yl)-2-fluoro-6-hydroxyphenyl)-1,2,5-thiadiazolidin-3-one 1,1-dioxide] |
| ≤ 1000 | ≤ 1000 | CCC[C@H]1C=C(c2ccc(O)c(N3CC(=O)NS3(=O)=O)c2F)CN1 [Compound 129, (S)-5-(2-fluoro-6-hydroxy-3-(5-propyl-2,5-dihydro-1H-pyrrol-3-yl)phenyl)-1,2,5-thiadiazolidin-3-one 1,1-dioxide] |
